Laboratory results published in PubChem BioAssay (NCI).
Values joined by “and” are separate entries in the source; they are usually repeats but may differ in a detail not shown here. Equal entries are not always repeated.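 Here, GI50 denotes the concentration required for 50% inhibition of growth. TGI marks complete inhibition of growth.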

Key:
Assay in all cases: NCI-60 cell line screen, 384-well format
786-0 renal = test system: 786-0 renal
A498 renal = test system: A498 renal
A549 NSCLC = test system: A549 NSCLC
ACHN renal = test system: ACHN renal
BT-549 breast = test system: BT-549 breast
CAKI-1 renal = test system: CAKI-1 renal
CCRF-CEM leukemia = test system: CCRF-CEM leukemia
COLO 205 colon = test system: COLO 205 colon
DU-145 prostate = test system: DU-145 prostate
EKVX NSCLC = test system: EKVX NSCLC
HCC-2998 colon = test system: HCC-2998 colon
HCT-116 colon = test system: HCT-116 colon
HCT-15 colon = test system: HCT-15 colon
HL-60(TB) leukemia = test system: HL-60(TB) leukemia
HOP-62 NSCLC = test system: HOP-62 NSCLC
HOP-92 NSCLC = test system: HOP-92 NSCLC
HS 578T breast = test system: HS 578T breast
HT29 colon = test system: HT29 colon
IGROV1 ovarian = test system: IGROV1 ovarian
K-562 leukemia = test system: K-562 leukemia
KM12 colon = test system: KM12 colon
LOX IMVI melanoma = test system: LOX IMVI melanoma
M14 melanoma = test system: M14 melanoma
MALME-3M melanoma = test system: MALME-3M melanoma
MCF7 breast = test system: MCF7 breast
MDA-MB-231 breast = test system: MDA-MB-231 breast
MDA-MB-435 melanoma = test system: MDA-MB-435 melanoma
MDA-MB-468 breast = test system: MDA-MB-468 breast
MOLT-4 leukemia = test system: MOLT-4 leukemia
NCI-H226 lung = test system: NCI-H226 lung
NCI-H23 lung = test system: NCI-H23 lung
NCI-H322M lung = test system: NCI-H322M lung
NCI-H460 NSCLC = test system: NCI-H460 NSCLC
NCI-H522 lung = test system: NCI-H522 lung
NCI/ADR-RES ovarian = test system: NCI/ADR-RES ovarian
OVCAR-3 ovarian = test system: OVCAR-3 ovarian
OVCAR-4 ovarian = test system: OVCAR-4 ovarian
OVCAR-5 ovarian = test system: OVCAR-5 ovarian
OVCAR-8 ovarian = test system: OVCAR-8 ovarian
PC-3 prostate = test system: PC-3 prostate
RPMI-8226 leukemia = test system: RPMI-8226 leukemia
RXF 393 renal = test system: RXF 393 renal
SF-268 CNS = test system: SF-268 CNS
SF-295 CNS = test system: SF-295 CNS
SF-539 CNS = test system: SF-539 CNS
SK-MEL-28 melanoma = test system: SK-MEL-28 melanoma
SK-MEL-5 melanoma = test system: SK-MEL-5 melanoma
SK-OV-3 ovarian = test system: SK-OV-3 ovarian
SN12C renal = test system: SN12C renal
SNB-19 CNS = test system: SNB-19 CNS
SNB-75 CNS = test system: SNB-75 CNS
SR leukemia = test system: SR leukemia
SW-620 colon = test system: SW-620 colon
T-47D breast = test system: T-47D breast
TK-10 renal = test system: TK-10 renal
U251 glioblastoma = test system: U251 glioblastoma
UACC-257 melanoma = test system: UACC-257 melanoma
UACC-62 melanoma = test system: UACC-62 melanoma
UO-31 renal = test system: UO-31 renal

SMILES: Cn1cc(-c2nc(N[C@@H]3CCCC[C@@H]3N)c(F)c3c2C(=O)NC3)cn1
- GI50 ([…]-0 renal): 5.53 µM and 4.81 µM
- TGI (786-0 renal): 17.9 µM and 18.3 µM
- GI50 (A498 renal): 0.559 µM and 1.3 µM
- TGI (A498 renal): 10.4 µM and 8.94 µM
- GI50 (A549 NSCLC): 4.08 µM and 6.73 µM
- TGI (A549 NSCLC): 33.2 µM and 32.9 µM
- GI50 (ACHN renal): 2 µM and 6.59 µM
- TGI (ACHN renal): 59.2 µM and > 100 µM
- GI50 (BT-549 breast): 2.17 µM and 5.01 µM
- TGI (BT-549 breast): 5.18 µM and 15.9 µM
- GI50 (CAKI-1 renal): 3.22 µM and 4.17 µM
- TGI (CAKI-1 renal): 19.7 µM and 19.3 µM
- GI50 (CCRF-CEM leukemia): 1.48 µM and 1.75 µM
- TGI (CCRF-CEM leukemia): 2.97 µM and 3.26 µM
- GI50 (COLO 205 colon): 1.45 µM and 1.85 µM
- TGI (COLO 205 colon): 2.9 µM and 3.53 µM
- GI50 (DU-145 prostate): 4.08 µM and 9.76 µM
- TGI (DU-145 prostate): 30.8 µM and 38.1 µM
- GI50 (EKVX NSCLC): 5.37 µM and 12.8 µM
- TGI (EKVX NSCLC): 29.5 µM and 62.4 µM
- TGI (HCC-2998 colon): 20.6 µM and 38.7 µM
- GI50 (HCT-116 colon): 2.04 µM and 2.98 µM
- TGI (HCT-116 colon): 17.3 µM and 17.9 µM
- GI50 (HCT-15 colon): 5.33 µM and 10.6 µM
- TGI (HCT-15 colon): 28.3 µM and > 100 µM
- GI50 (HL-60(TB) leukemia): 3.18 µM and 2.76 µM
- TGI (HL-60(TB) leukemia): 14.7 µM and 13.3 µM
- GI50 (HOP-62 NSCLC): 2.31 µM and 4.56 µM
- TGI (HOP-62 NSCLC): 9.99 µM and 16.5 µM
- GI50 (HOP-92 NSCLC): 3.89 µM and 5.41 µM
- TGI (HOP-92 NSCLC): 15.6 µM and 18.3 µM
- GI50 (HS 578T breast): 2.21 µM and 11 µM
- TGI (HS 578T breast): 12.1 µM and 25.5 µM
- GI50 (HT29 colon): 4.79 µM and 7.58 µM
- TGI (HT29 colon): 58.5 µM and 26.6 µM
- GI50 (IGROV1 ovarian): 2.99 µM and 10.9 µM
- TGI (IGROV1 ovarian): 28.9 µM and 90.9 µM
- GI50 (K-562 leukemia): 2.93 µM and 3.44 µM
- TGI (K-562 leukemia): 14 µM and 18.6 µM
- GI50 (KM12 colon): 0.339 µM and 0.445 µM
- TGI (KM12 colon): 25.2 µM and 45.1 µM
- GI50 (LOX IMVI melanoma): 1.85 µM and 3.58 µM
- TGI (LOX IMVI melanoma): 3.98 µM and 12.7 µM
- GI50 (M14 melanoma): 0.615 µM and 1.56 µM
- TGI (M14 melanoma): 25.7 µM and 14.5 µM
- GI50 (MALME-3M melanoma): 6.89 µM and 4.15 µM
- TGI (MALME-3M melanoma): 22.2 µM and 26 µM
- GI50 (MCF7 breast): 2.89 µM and 19.2 µM
- TGI (MCF7 breast): 36.5 µM and 81.2 µM
- GI50 (MDA-MB-231 breast): 5 µM and 10.4 µM
- TGI (MDA-MB-231 breast): 17.7 µM and 22.9 µM
- GI50 (MDA-MB-435 melanoma): 4.49 µM and 6.35 µM
- TGI (MDA-MB-435 melanoma): > 100 µM
- GI50 (MDA-MB-468 breast): 3.08 µM and 4.3 µM
- TGI (MDA-MB-468 breast): 6.44 µM and 11.7 µM
- GI50 (MOLT-4 leukemia): 0.299 µM and 1.14 µM
- GI50 (NCI-H226 lung): 2.08 µM and 4.38 µM
- TGI (NCI-H226 lung): 7.05 µM and 27.9 µM
- GI50 (NCI-H23 lung): 2.17 µM and 4.29 µM
- TGI (NCI-H23 lung): 13 µM and 17.5 µM
- GI50 (NCI-H322M lung): 15.5 µM and 28.7 µM
- TGI (NCI-H322M lung): 38.9 µM and > 100 µM
- GI50 (NCI-H460 NSCLC): 2.61 µM and 3.15 µM
- TGI (NCI-H460 NSCLC): 13.5 µM and 14.3 µM
- GI50 (NCI-H522 lung): 1.64 µM and 3.56 µM
- TGI (NCI-H522 lung): 6.01 µM and 15.4 µM
- GI50 (NCI/ADR-RES ovarian): 38.8 µM and > 100 µM
- TGI (NCI/ADR-RES ovarian): > 100 µM
- GI50 (OVCAR-3 ovarian): 9.28 µM and 9.39 µM
- TGI (OVCAR-3 ovarian): 24.7 µM and 34.3 µM
- GI50 (OVCAR-4 ovarian): 15.2 µM and 21.4 µM
- TGI (OVCAR-4 ovarian): 30.5 µM and 43.7 µM
- GI50 (OVCAR-5 ovarian): 6.09 µM
- TGI (OVCAR-5 ovarian): 21.6 µM
- GI50 (OVCAR-8 ovarian): 6.08 µM and 12.2 µM
- TGI (OVCAR-8 ovarian): 19.4 µM and 25.2 µM
- GI50 (PC-3 prostate): 9.39 µM and 15.4 µM
- TGI (PC-3 prostate): 45.3 µM and 86.9 µM
- GI50 (RPMI-8226 leukemia): 0.537 µM and 1.52 µM
- TGI (RPMI-8226 leukemia): 2.19 µM and 4.13 µM
- GI50 (RXF 393 renal): 0.596 µM and 2.12 µM
- TGI (RXF 393 renal): 3.57 µM and 13 µM
- GI50 (SF-268 CNS): 2.79 µM and 9.19 µM
- TGI (SF-268 CNS): 15.2 µM and 45.5 µM
- GI50 (SF-295 CNS): 0.675 µM and 3.12 µM
- TGI (SF-295 CNS): 2.81 µM and 11.7 µM
- GI50 (SF-539 CNS): 1.35 µM and 3.09 µM
- TGI (SF-539 CNS): 3.56 µM and 13 µM
- GI50 (SK-MEL-28 melanoma): 10.2 µM and 11.2 µM
- TGI (SK-MEL-28 melanoma): 66.1 µM and > 100 µM
- TGI (SK-MEL-5 melanoma): 17.8 µM and 34.5 µM
- GI50 (SK-OV-3 ovarian): 2.07 µM and 10.8 µM
- TGI (SK-OV-3 ovarian): 21.5 µM and 65.8 µM
- GI50 (SN12C renal): 2.09 µM and 1.95 µM
- TGI (SN12C renal): 10.9 µM and 7.66 µM
- GI50 (SNB-19 CNS): 17.8 µM and 19.4 µM
- TGI (SNB-19 CNS): 33.7 µM and 39.1 µM
- GI50 (SNB-75 CNS): 1.88 µM and 5.16 µM
- TGI (SNB-75 CNS): 4.98 µM and 19.4 µM
- GI50 (SR leukemia): 0.535 µM and 0.17 µM
- TGI (SR leukemia): 1.78 µM and 0.447 µM
- GI50 (SW-620 colon): 2.37 µM and 5.69 µM
- TGI (SW-620 colon): 7.78 µM and 25.8 µM
- GI50 (T-47D breast): 32.5 µM and 56.3 µM
- TGI (T-47D breast): 85.3 µM and > 100 µM
- GI50 (TK-10 renal): 3.87 µM and 12.1 µM
- TGI (TK-10 renal): 17.5 µM and 26.9 µM
- GI50 (U251 glioblastoma): 14.2 µM and 17.6 µM
- TGI (U251 glioblastoma): 27.9 µM and 32.8 µM
- GI50 (UACC-257 melanoma): 12.8 µM and 33.7 µM
- TGI (UACC-257 melanoma): 33.4 µM and > 100 µM
- GI50 (UACC-62 melanoma): 13.3 µM
- TGI (UACC-62 melanoma): 39.5 µM
- GI50 (UO-31 renal): 7.89 µM and 11 µM
- TGI (UO-31 renal): 20.5 µM and 23.2 µM
